Measurements taken from ChEMBL document CHEMBL5131445, “Optimization of a novel piperazinone series as potent selective peripheral covalent BTK inhibitors” (Bioorg Med Chem Lett, 2022).
In brackets after ≈: the same amount, converted by molar mass.

How the values were obtained:
[1] = Metabolic stability in rat liver microsomes assessed as intrinsic clearance; assay type: ADME, Microsome; settings: read-out: CLH
[2] = Metabolic stability in human liver microsomes assessed as intrinsic clearance; assay type: ADME, Microsome; settings: read-out: CLH
[3] = Volume of distribution at steady state in iv dosed Sprague-Dawley rat; assay type: ADME, organism-based; settings: in vivo, read-out: Vdss
[4] = target: Tyrosine-protein kinase Blk (Homo sapiens, UniProt P51451); assay: Binding affinity to BLK (unknown origin) assessed as dissociation constant by KINOMEscan analysis
Tyrosine-protein kinase Blk, sequence (P51451 whole entry): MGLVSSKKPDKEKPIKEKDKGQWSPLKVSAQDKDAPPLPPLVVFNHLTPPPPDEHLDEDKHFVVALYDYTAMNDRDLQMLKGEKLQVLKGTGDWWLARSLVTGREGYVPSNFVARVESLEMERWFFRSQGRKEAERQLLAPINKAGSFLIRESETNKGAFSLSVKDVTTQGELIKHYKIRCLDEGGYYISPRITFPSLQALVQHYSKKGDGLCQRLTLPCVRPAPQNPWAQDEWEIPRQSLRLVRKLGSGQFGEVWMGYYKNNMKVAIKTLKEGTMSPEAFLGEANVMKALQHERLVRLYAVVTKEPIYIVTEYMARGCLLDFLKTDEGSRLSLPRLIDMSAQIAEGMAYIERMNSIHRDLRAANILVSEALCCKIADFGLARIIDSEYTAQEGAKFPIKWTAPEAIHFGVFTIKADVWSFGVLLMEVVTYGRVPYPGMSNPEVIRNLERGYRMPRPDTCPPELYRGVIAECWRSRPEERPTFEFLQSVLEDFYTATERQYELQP

[5] = target: T1, Tyrosine-protein kinase BTK (Homo sapiens, UniProt Q06187); assay: Binding affinity to BTK (unknown origin) assessed as dissociation constant by KINOMEscan analysis
T1 sequence (Q06187 whole entry): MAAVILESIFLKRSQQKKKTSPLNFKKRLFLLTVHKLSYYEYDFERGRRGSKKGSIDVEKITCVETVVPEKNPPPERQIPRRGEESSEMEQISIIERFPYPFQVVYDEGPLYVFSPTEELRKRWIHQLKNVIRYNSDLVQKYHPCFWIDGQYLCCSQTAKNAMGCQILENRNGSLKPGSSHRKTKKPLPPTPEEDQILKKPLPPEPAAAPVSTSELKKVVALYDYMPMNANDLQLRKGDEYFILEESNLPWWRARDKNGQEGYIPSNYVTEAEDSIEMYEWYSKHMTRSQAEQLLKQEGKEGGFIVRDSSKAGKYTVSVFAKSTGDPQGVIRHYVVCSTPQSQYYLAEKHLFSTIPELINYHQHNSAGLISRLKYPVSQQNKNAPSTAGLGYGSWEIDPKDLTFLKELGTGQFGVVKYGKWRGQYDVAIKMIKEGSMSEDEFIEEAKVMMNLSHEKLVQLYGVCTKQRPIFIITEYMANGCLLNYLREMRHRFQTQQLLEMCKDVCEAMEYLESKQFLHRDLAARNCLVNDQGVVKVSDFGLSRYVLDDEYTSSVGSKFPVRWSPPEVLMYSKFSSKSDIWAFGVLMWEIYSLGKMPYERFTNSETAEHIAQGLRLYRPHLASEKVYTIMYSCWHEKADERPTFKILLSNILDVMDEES

[6] = target: T1, Tyrosine-protein kinase BTK; assay: Inhibition of BTK (unknown origin) at 1 uM by KINOMEscan assay relative to control
[7] = target: T1, Tyrosine-protein kinase BTK; assay: Inhibition of BTK in human Ramos cells assessed as target occupancy; assay type: cell-based
[8] = Plasma protein binding in rat assessed as unbound fraction by rapid equilibrium dialysis method; assay type: ADME, cell-free
[9] = Clearance in iv dosed Sprague-Dawley rat; assay type: ADME, organism-based; settings: in vivo
Cytochrome P450 2C8 = target: T2, Cytochrome P450 2C8 (Homo sapiens, UniProt P10632); assay: Inhibition of human CYP2C8; assay type: ADME
T2 sequence (P10632 whole entry): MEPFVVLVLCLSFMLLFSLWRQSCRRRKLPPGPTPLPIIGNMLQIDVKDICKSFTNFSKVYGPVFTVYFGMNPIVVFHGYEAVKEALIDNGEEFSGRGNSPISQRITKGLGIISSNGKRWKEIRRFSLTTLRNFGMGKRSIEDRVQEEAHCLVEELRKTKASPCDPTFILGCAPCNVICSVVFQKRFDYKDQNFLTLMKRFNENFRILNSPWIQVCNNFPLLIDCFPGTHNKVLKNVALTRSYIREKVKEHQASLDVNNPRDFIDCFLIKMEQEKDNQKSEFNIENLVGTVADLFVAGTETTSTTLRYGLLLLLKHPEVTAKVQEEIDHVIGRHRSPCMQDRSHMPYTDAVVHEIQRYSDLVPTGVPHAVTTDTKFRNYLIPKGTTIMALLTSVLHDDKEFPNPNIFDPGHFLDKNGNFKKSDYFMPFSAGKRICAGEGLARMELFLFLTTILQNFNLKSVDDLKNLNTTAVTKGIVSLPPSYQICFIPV

[10] = target: T3, Tyrosine-protein kinase Tec (Homo sapiens, UniProt P42680); assay: Binding affinity to TEC (unknown origin) assessed as dissociation constant by KINOMEscan analysis
T3 sequence (P42680 whole entry): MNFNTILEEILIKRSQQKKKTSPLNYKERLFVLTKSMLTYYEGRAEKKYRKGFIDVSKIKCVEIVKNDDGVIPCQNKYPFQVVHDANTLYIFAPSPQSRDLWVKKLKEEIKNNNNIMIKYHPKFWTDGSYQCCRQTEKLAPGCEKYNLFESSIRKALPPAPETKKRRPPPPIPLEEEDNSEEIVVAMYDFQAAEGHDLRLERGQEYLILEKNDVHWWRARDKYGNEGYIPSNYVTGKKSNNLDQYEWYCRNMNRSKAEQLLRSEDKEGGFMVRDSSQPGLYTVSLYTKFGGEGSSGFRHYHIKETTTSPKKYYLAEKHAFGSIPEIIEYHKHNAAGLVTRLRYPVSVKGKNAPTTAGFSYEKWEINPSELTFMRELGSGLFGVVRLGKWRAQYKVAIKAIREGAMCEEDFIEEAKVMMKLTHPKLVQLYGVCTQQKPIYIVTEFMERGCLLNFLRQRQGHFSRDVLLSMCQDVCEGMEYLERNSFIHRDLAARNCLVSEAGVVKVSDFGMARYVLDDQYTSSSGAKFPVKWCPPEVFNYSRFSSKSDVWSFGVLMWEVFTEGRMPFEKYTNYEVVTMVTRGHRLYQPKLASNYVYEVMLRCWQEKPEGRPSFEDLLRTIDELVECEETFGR

Cytochrome P450 1A2 = target: T4, Cytochrome P450 1A2 (Homo sapiens, UniProt P05177); assay: Inhibition of human CYP1A2; assay type: ADME
T4 sequence (P05177 whole entry): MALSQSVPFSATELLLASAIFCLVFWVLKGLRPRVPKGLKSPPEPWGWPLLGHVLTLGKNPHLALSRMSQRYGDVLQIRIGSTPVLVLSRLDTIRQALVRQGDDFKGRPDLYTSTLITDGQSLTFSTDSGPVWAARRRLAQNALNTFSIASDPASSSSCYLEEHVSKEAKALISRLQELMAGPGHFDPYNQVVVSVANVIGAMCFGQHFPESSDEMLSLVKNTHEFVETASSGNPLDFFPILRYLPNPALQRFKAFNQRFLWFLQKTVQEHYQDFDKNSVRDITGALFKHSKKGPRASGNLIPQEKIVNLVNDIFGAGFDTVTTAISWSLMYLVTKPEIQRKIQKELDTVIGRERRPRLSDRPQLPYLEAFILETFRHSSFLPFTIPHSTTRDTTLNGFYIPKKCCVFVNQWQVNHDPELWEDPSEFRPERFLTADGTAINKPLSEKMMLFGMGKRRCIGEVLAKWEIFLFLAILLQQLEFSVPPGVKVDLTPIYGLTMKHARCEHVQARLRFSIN

Cytochrome P450 2C9 = Cytochrome P450 2C9 (Homo sapiens, UniProt P11712); assay: Inhibition of human CYP2C9; assay type: ADME
Cytochrome P450 2C9, sequence (P11712 whole entry): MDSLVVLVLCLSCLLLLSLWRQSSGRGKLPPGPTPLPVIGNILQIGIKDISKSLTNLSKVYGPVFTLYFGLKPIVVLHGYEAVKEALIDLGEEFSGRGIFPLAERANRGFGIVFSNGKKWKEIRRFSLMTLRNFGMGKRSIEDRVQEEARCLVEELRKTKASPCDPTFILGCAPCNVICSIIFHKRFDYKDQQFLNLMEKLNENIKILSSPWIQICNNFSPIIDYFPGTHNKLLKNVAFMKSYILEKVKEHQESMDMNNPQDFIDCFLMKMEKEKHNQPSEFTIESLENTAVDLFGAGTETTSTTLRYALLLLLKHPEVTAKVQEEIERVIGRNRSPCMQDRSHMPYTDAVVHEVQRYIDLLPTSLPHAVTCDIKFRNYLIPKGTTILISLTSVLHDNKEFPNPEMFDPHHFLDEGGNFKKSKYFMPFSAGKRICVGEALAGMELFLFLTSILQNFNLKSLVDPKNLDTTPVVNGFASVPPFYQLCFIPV

[11] = Inhibition of CD69 expression on CD19 positive B cells in anti-IgD stimulated human whole blood; assay type: functional, tissue-based; settings: CD19 positive B cell
[12] = target: Voltage-gated inwardly rectifying potassium channel KCNH2 (Homo sapiens, UniProt Q12809); assay: Inhibition of hERG; assay type: toxicity
Voltage-gated inwardly rectifying potassium channel KCNH2, sequence (Q12809 whole entry): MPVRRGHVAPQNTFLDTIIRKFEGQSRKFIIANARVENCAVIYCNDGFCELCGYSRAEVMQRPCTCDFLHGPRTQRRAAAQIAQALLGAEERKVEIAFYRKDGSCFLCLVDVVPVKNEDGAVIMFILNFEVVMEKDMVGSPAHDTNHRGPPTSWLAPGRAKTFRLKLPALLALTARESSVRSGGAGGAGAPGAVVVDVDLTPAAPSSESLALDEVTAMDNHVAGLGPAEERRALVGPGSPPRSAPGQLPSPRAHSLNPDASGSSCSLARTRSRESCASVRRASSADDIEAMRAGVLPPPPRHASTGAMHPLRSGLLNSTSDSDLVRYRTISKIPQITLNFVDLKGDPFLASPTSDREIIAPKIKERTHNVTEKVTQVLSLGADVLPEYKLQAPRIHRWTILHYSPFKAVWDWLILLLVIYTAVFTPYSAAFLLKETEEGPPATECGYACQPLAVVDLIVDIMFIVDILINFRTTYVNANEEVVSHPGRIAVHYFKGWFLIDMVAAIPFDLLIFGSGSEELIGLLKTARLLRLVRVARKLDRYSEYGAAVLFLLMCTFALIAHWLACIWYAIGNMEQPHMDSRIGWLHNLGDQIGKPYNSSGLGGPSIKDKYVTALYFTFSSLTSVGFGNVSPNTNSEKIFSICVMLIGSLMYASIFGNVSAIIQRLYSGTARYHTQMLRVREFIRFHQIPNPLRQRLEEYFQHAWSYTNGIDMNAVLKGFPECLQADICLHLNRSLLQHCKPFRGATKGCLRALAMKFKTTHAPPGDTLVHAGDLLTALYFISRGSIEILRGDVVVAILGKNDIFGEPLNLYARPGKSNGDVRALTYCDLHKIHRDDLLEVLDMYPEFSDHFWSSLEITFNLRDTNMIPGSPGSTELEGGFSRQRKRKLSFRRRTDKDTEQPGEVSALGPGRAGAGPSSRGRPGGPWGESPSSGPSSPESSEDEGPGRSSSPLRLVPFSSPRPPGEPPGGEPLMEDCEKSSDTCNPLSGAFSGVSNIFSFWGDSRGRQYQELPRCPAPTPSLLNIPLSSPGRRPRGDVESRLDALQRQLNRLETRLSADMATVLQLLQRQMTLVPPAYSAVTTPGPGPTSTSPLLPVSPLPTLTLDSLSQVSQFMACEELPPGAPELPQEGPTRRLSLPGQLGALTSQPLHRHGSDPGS

[13] = Kinetic aqueous solubility of the compound at pH 1.5 by shake flask assay; assay type: physicochemical; settings: read-out: Kinetic_solubility
[14] = Kinetic aqueous solubility of the compound at pH 6.8 by shake flask assay; assay type: physicochemical; settings: read-out: Kinetic_solubility
MDR1 = assay: Permeability across apical to basolateral side in dog MDCK-MDR1 cells; assay type: ADME, cell-based, Canis lupus familiaris; settings: read-out: permeability
Cytochrome P450 3A4 = Cytochrome P450 3A4 (Homo sapiens, UniProt P08684); assay: Inhibition of human CYP3A4; assay type: ADME
Cytochrome P450 3A4, sequence (P08684 whole entry): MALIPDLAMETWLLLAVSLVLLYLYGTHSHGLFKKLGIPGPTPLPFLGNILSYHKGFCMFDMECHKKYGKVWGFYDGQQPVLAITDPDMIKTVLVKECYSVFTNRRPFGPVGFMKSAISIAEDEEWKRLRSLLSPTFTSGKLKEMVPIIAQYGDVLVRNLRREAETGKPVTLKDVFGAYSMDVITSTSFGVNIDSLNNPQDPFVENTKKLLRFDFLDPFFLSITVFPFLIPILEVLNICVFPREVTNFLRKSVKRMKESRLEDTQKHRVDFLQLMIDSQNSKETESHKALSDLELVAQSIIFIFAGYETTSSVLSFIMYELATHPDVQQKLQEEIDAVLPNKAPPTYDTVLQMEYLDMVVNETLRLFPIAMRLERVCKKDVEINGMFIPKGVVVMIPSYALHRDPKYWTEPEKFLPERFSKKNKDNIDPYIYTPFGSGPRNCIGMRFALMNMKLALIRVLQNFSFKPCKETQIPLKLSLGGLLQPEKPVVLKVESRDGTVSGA

Cytochrome P450 2D6 = Cytochrome P450 2D6 (Homo sapiens, UniProt P10635); assay: Inhibition of human CYP2D6; assay type: ADME
Cytochrome P450 2D6, sequence (P10635 whole entry): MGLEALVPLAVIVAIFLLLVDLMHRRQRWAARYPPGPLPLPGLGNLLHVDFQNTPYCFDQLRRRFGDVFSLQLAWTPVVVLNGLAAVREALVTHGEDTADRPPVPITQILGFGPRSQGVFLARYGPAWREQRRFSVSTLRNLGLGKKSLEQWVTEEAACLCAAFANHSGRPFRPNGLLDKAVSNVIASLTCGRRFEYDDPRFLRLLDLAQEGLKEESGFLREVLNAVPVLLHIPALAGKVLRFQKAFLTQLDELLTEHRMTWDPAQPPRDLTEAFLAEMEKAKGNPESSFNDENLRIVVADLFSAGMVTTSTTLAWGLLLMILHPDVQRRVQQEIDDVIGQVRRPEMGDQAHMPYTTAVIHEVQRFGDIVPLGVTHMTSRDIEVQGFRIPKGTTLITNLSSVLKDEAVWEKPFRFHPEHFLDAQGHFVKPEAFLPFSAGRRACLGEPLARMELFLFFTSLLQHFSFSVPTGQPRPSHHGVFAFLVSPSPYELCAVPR

[15] = target: T1, Tyrosine-protein kinase BTK; assay: Inhibition of BTK (unknown origin)
[16] = target: Receptor tyrosine-protein kinase erbB-2 (Homo sapiens, UniProt P04626); assay: Binding affinity to ERBB2 (unknown origin) assessed as dissociation constant by KINOMEscan analysis
Receptor tyrosine-protein kinase erbB-2, sequence (P04626 whole entry): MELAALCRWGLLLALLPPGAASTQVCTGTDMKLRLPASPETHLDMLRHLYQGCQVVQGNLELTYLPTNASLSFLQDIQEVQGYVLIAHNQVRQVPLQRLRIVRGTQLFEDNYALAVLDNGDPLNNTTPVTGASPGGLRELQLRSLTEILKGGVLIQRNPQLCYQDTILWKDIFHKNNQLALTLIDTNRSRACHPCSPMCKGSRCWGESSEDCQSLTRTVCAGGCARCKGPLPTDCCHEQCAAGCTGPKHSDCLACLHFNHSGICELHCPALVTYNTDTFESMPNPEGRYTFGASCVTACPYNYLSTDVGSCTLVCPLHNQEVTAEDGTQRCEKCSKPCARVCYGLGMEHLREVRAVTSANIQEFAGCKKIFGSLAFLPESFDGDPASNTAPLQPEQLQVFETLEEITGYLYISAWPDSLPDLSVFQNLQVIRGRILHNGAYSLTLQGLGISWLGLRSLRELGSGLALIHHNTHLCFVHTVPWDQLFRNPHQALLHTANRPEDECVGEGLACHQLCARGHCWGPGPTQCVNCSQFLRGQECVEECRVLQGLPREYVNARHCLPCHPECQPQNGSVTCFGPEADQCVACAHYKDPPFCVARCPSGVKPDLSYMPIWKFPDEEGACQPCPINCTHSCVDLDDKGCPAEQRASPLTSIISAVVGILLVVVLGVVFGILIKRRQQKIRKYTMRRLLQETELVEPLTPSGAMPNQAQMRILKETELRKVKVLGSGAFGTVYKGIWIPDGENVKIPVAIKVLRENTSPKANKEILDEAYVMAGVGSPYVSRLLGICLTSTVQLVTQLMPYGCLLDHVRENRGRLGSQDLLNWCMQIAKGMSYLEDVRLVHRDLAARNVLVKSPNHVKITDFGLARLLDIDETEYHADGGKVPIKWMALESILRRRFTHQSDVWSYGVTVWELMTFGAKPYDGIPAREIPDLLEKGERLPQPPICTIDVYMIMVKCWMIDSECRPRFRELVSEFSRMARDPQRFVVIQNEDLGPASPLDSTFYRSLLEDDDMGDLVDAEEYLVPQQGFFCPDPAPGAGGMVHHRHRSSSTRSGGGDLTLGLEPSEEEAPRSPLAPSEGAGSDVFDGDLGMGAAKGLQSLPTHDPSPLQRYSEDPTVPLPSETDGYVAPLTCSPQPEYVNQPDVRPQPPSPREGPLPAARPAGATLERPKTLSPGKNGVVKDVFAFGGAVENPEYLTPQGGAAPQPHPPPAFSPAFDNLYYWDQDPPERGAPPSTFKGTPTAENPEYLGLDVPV

C=CC(=O)N(C)CCOc1c(N)ncnc1-c1ccc(CN2CCN(CC(C)C)CC2=O)c(C)c1
CLint scaled [1]: 154 mL/min/kg
CLint scaled [2]: 66 mL/min/kg
Vd [3]: 126 L/kg
Kd [4]: 10 µM
Kd [5]: 0.00091 µM
inhibition [6]: > 90%
IC50 [7]: 0.0031 µM
fraction unbound [8]: 0.169
clearance [9]: 126 mL/min/kg
IC50 (Cytochrome P450 2C8): > 10 µM
Kd [10]: 0.24 µM
IC50 (Cytochrome P450 1A2): > 10 µM
IC50 (Cytochrome P450 2C9): > 10 µM
IC50 [11]: 0.03 µM
IC50 [12]: > 60 µM
solubility kinetic [13]: 73 µg/mL (≈ 152 µM)
solubility kinetic [14]: 49 µg/mL (≈ 102 µM)
Papp A→B (MDR1): 0.32 ×10⁻⁶ cm/s
IC50 (Cytochrome P450 3A4): > 10 µM
IC50 (Cytochrome P450 2D6): > 10 µM
IC50 [15]: 0.00022 µM
Kd [16]: 20 µM
